Several values for one entry are separate records, joined by “and”; a condition that tells them apart may be missing. Equal entries are not always repeated.

The text below walks through data of BindingDB's records for patent US8507533 (Pfizer, 2013).

The target in the test is Glucagon receptor (Homo sapiens, UniProt P47871). The test is described as follows: Glucagon SPA Assay. Conditions: pH 7.4. The source says: The Glucagon SPA assay is used to determine the ability of test compounds to block the binding of glucagon-cex to the glucagon receptors.
Sequence of Glucagon receptor (P47871 whole entry): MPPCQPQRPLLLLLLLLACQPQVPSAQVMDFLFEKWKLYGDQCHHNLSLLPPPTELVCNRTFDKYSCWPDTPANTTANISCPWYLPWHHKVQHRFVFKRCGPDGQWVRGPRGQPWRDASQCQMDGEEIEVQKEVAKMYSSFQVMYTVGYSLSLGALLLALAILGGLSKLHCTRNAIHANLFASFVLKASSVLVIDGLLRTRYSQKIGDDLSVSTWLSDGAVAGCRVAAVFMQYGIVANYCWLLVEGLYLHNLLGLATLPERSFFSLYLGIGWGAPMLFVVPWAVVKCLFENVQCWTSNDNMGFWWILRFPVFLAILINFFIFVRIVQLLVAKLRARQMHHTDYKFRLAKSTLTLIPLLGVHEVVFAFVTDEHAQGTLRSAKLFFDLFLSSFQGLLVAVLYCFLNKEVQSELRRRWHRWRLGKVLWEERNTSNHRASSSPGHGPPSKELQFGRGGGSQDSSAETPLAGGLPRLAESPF

In general, Ki refers to a measure of affinity in units of concentration, obtained from inhibition or displacement. A high value points to weaker binding. As to `Cc1cc(-n2cc(C(F)(F)F)cn2)ccc1C(Nc1ccc(C(=O)NCCC(=O)O)cn1)C1CCCCC1` (single isomer, unassigned) [US8507533, 337], the Ki is 183 nM and 297 nM. Consider `CCCC(Oc1ccc(-n2cc(-c3ccccc3)cn2)nc1)c1ccc(C(=O)NCCC(=O)O)cc1` (configuration not stated) [US8507533, 133], for which the affinity corresponds to a Ki of 58 nM.
